From PubChem BioAssay AID492984 (Sanford-Burnham Center for Chemical Genomics, 2010)
Activity calls are given as the source filed them.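 Rule for the calls: active = IC50 below 20 µM in the dose response test; inactive = the rest.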

The compounds below were run against Type-1 angiotensin II receptor (Homo sapiens) (UniProt P30556) (assay: AGTR1 antagonism selectivity check – cell-based, CHO-K1 PathHunter, luminescence, set 3, selectivity assay for APJ antagonist project, SAR follow-up (AID 492984)). Settings: CHO-K1 AGTR1 PathHunter beta-arrestin.
Type-1 angiotensin II receptor (Homo sapiens), sequence (P30556 whole entry, looked up): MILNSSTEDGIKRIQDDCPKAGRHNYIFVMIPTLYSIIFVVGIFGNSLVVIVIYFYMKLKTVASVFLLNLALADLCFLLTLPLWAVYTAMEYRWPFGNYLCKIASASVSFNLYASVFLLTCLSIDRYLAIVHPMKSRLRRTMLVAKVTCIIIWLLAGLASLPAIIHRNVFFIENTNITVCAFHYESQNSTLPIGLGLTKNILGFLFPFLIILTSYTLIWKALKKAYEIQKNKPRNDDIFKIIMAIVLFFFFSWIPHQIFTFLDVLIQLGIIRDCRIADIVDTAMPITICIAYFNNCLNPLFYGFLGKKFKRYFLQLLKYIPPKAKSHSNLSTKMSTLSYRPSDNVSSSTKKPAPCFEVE

Row | SMILES | IC50
1 | Cc1ccnc(SCc2cc(=O)c(OC(=O)c3cccc(C#N)c3)co2)n1 | > 79 µM (inactive)
2 | O=C(Oc1coc(CCl)cc1=O)c1ccc(Cl)c([N+](=O)[O-])c1 | > 79 µM (inactive)
3 | O=c1cc(CSc2ccc(F)cc2)occ1O | > 79 µM (inactive)
4 | Cc1cc(C)nc(SCc2cc(=O)c(OS(=O)(=O)c3ccc([N+](=O)[O-])cc3)co2)n1 | > 79 µM (inactive)
5 | Cc1ccnc(SCc2cc(=O)c(NC(=O)c3ccccc3)co2)n1 | > 79 µM (inactive)
6 | O=C(Oc1coc(CSc2ncccn2)cc1=O)c1ccc([N+](=O)[O-])cc1 | > 79 µM (inactive)
7 | Cc1cc(C)nc(SCc2cc(=O)c(OS(=O)(=O)c3ccccc3)co2)n1 | > 79 µM (inactive)
